# Assay: Solubility of monomers and BTT in 1:1 mixes of acetonitrile and a solvent
# Type: physicochemical
# Procedure: The BTT (MW 192.2., water content ≦75 ppm) was supplied by emp Biotech GmbH (catalog no. NC-0101-1K, charge/lot no. 050904). The dT (MW 744.83), dG^ibu (MW 839.92), dA^bz (MW 857.93), dC^bz (MW 833.93) monomers were supplied by Proligo. The acetonitrile (MeCN) has a viscosity of 0.345 cP at 25° C. and a dipole moment of 3.92 D.
# 74.5 mg (100 μmol) of dT monomer was weighed out into each of 7 screw-topped 10 ml vials. 84 mg (100 μmol) of dG^ibu monomer was weighed out into each of 7 screw-topped 10 ml vials. 86 mg (100 μmol) of dA^bz monomer was weighed out into each of 7 screw-topped 10 ml vials. 83 mg (100 μmol) of dC^bz monomer was weighed out into each of 7 screw-topped 10 ml vials. 228 mg (1.2 mmol) of BTT was weighed out into each of 7 screw-topped 10 ml vials.
# Six different solvent mixes were prepared by mixing 10 ml of dry acetonitrile with 10 ml of one of the 6 different solvents listed above in separate dry bottles under argon.
# To each separate vial of T monomer was added 1 ml of one of the 6 different solvent mixes or pure acetonitrile. The vials were quickly closed and agitated gently. This was repeated with the vials of dG, dA and dC monomers.
# To each separate vial of BTT was added 4 ml of one of the 6 solvent mixes.
structure (smiles),measurement,setting,value
"c1ccc(CSc2nnn[nH]2)cc1 [BTT, 5-benzylthiotetrazole]",dissolution of BTT,"0.3 M, solvent mixes, all cases except HFIP/MeCN",practically instantaneous
same,solubility of BTT,"at 0.3 M in all 5 mixes (acetonitrile 1:1 with NMP, DMA, TMU, DMSO, sulfolane)",soluble
same,dissolution of BTT,"pure acetonitrile, compared with the solvent mixes, gentle warming required for rapid dissolution",not as fast
